# Results from US20240066115A1, “DETERMINATION AND USES OF CD8+ T CELL EPITOPES” (priority 2021, published 2024).
# Where a SMILES comes first, the peptide text is derived from it.
# How the values were obtained:
# GL261/vIII target cells = experiment: Cytotoxic T cell killing assay, T cells from vaccinated mice; conditions: 50:1 effector to target ratio
# GL261/vIII = experiment: Intracranial glioma model GL261/vIII, peptide vaccination; type: in vivo; conditions: candidate peptides as individual vaccines
# Text: Y6-pepvIII is effective in an intracranial glioma model. Because of its significant effect on survival in the EGFRvIII subcutaneous tumor model, we selected Y6-pepvIII for in-depth analysis. First, we tested this vaccine in a model that more accurately represented human gliomas. We utilized the commonly employed murine glioma 261 (GL261) intracranial tumor model (30) which was transfected with the EGFRvIII cDNA to yield a line with high expression, GL261/vIII. We explored intracranial injection protocols that would lead to reproducible survival curves and identified conditions where 90% of the animals survived 23-29 days. To compare vaccine efficacy, mice received either Montanide (ISA51) alone, 100 ug of KLH with Montanide, 100 ug of KLH conjugated to pepvIII or Y6-pepvIII in Montanide following the vaccination schedule outlined in FIG. 2A. While KLH treatment had no measurable impact on survival, vaccination with the pepvIII induced a modest but statistically significant 23% increase in survival vs. control mice (FIG. 2B; median survival: Control=26.0 days, KLH=27 days, pepvIII=32 days, p<0.0001).
# Intracranial model. Six to 8-week old C57BL/6J mice (Jackson Laboratories, Bar Harbor, ME), had gliomas established by stereotactically injecting 10,000 GL261/vIII […] CT2A/vIII cells into the left striatum (2 mm posterior to the coronal suture and 2 mm lateral to the sagittal suture) on day 0 of the experimental process as previously described. Briefly, mice were anesthetized with isoflurane (4%) and placed in the stereotactic frame. An incision was made, and a burr hole was drilled over the striatum. GL261/vIII or CT2A/vIII cells were injected at the above stated coordinates using a Hamilton Microsyringe controlled by an automated micro-pump injection system. Mice were assigned to treatment groups randomly and tumor progression was monitored by bioluminescent signal as detected by the IVIS imaging system (Caliper Life Sciences, Hopkinton, MA).
# For survival experiments, each treatment group consisted of 6 to 15 mice. […]
Molecule,cytotoxic activity against GL261/wt target cells (GL261/wt target cells),cytotoxic capacity of T cells of vaccinated mice (GL261/vIII target cells),increase in survival relative to KLH treated control mice (GL261/vIII)
CC(C)C[C@H](N)C(=O)N[C@@H](CCC(=O)O)C(=O)N[C@@H](CCC(=O)O)C(=O)N[C@@H](CCCCN)C(=O)N[C@@H](CCCCN)C(=O)N[C@@H](Cc1ccc(O)cc1)C(=O)N[C@@H](CC(N)=O)C(=O)N[C@@H](Cc1ccc(O)cc1)C(=O)N[C@H](C(=O)N[C@H](C(=O)N[C@H](C(=O)N[C@@H](CC(=O)O)C(=O)N[C@@H](Cc1c[nH]cn1)C(=O)O)[C@@H](C)O)C(C)C)C(C)C [Y6-pepvIII] (H-LEEKKYNYVVTDH-OH),no cytotoxic activity,increased cytotoxic capacity,–
"CC(C)C[C@H](N)C(=O)N[C@@H](CCC(=O)O)C(=O)N[C@@H](CCC(=O)O)C(=O)N[C@@H](CCCCN)C(=O)N[C@@H](CCCCN)C(=O)NCC(=O)N[C@@H](CC(N)=O)C(=O)N[C@@H](Cc1ccc(O)cc1)C(=O)N[C@H](C(=O)N[C@H](C(=O)N[C@H](C(=O)N[C@@H](CC(=O)O)C(=O)N[C@@H](Cc1c[nH]cn1)C(=O)O)[C@@H](C)O)C(C)C)C(C)C [pepvIII, reference compound]",no cytotoxic activity,–,–
LEEKKNYV,–,–,30%
LEEYVVTDH,–,–,54%
NYVVTDH,–,–,18%
